Experimental data from publication PMC8815882, “Screening the pandemic response box identified benzimidazole carbamates, Olorofim and ravuconazole as promising drug candidates for the treatment of eumycetoma” (PLoS Neglected Tropical Diseases, 2022).
Values after ≈ are worked out from the molar mass of the structure shown. Like-named read-outs stand apart in the source and are kept apart here.

Tests used:
[1] = test system: M. mycetomatis genome strain MM55; design: method as in PMID 29698504; settings: parasitic DHODH inhibitors of the MMV Pathogen Box screened previously; cited from earlier work
[2] = test system: Me. romeroi strain CBS128765; assay: CLSI M38-A2 based in vitro susceptibility screening at 25 μM; assay type: cell-based, Medicopsis romeroi; settings: selected if >75% (resazurin) or >80% (XTT) fungal growth inhibited
M. mycetomatis MM55 = assay: IC50 determination, 2-fold dilution series 16 to 0.03125 μM; assay type: cell-based, Madurella mycetomatis; settings: for IC50 / IC90: Madurella mycetomatis
[3] = test system: ten different M. mycetomatis isolates; design: method as in PMID 24945848, PMID 22964246, PMID 31904836; settings: asterisk: determined in previous works ref 19-21; cited from earlier work
[4] = test system: M. pseudomycetomatis strain Mex2A; assay: CLSI M38-A2 based in vitro susceptibility screening at 25 μM; assay type: cell-based, Madurella pseudomycetomatis; settings: selected if >75% (resazurin) or >80% (XTT) fungal growth inhibited
[5] = test system: M. mycetomatis genome strain MM55; assay: CLSI M38-A2 based in vitro susceptibility screening (XTT or resazurin), growth at fixed concentration; assay type: cell-based, Madurella mycetomatis; settings: Madurella mycetomatis; for Percent fungal survival at 100 µM: read-out: Percentage survival at 100um, 100 uM A (second replicate column)
[6] = test system: M. mycetomatis isolate MM55; assay: M. mycetomatis grain infection model in G. mellonella larvae, survival; assay type: in vivo, Galleria mellonella; design: In vivo efficacy, Larvae survival %: concentration or dose not given beside the values; settings: for Larvae survival rate on day ten: 20 μM per larvae at 4, 28, 52 h after infection
[7] = test system: M. tropicana strain CBS206.47; assay: CLSI M38-A2 based in vitro susceptibility screening at 25 μM; assay type: cell-based, Madurella tropicana; settings: selected if >75% (resazurin) or >80% (XTT) fungal growth inhibited
[8] = test system: F. senegalensis strain CBS132257; assay: as above; assay type: cell-based, Falciformispora senegalensis; settings: selected if >75% (resazurin) or >80% (XTT) fungal growth inhibited
M. mycetomatis = assay: Drug static or cidal determination; assay type: cell-based, Madurella mycetomatis
Source text: Supplement pntd.0010159.s001.xlsx, sheet "Pandemic Box Master sheet" | column: Drug static or cidal

[9] = test system: ten different M. mycetomatis isolates; assay: MIC / MIC50 determination (XTT) in ten M. mycetomatis isolates; assay type: cell-based, Madurella mycetomatis; settings: Madurella mycetomatis
eumycetoma = settings: cited from earlier work
[10] = MM55, Table 2, M. mycetomatis MM55, read-out: IC50
[11] = MM55, mean of replicates, read-out: IC50 mean
[12] = G. mellonella larvae infected with M. mycetomatis
[13] = MM55, replicate 1, read-out: IC50 1
[14] = MM55, replicate 1, read-out: IC90 1
[15] = MM55, replicate 2, read-out: IC50 2
[16] = MM55, replicate 2, read-out: IC90 2
[17] = MM55, replicate 3, read-out: IC50 3
[18] = MM55, replicate 3, read-out: IC90 3
[19] = replicate A, read-out: Percentage survival at 25um, 25 um A
[20] = replicate B, read-out: Percentage survival at 25um, 25 uM B
[21] = replicate C, read-out: Percentage survival at 25um, 25 uM C

In the case of `CC(C)C(NC(=O)Cc1cccc2ccccc12)C(=O)Nc1cccc(C#N)c1` (centres unmarked) [MMV020591], the “In vitro activity against M. mycetomatis” value [1] is listed as “no activity”.

In the case of `Cc1cc(-c2ccccc2)c(C(=O)C(=O)Nc2ccc(N3CCN(c4ncc(F)cn4)CC3)cc2)n1C` [MMV1782354, Olorofim], the “Inhibits growth of Medicopsis romeroi at 25 μM” value [2] is reported as “no activity”, the “Drug static or cidal” value (M. mycetomatis MM55; M. mycetomatis) is reported as “Cidal” and the IC50 (M. mycetomatis MM55; [10]) is reported as < 16 nM. For the same compound, the IC50 (M. mycetomatis MM55; [11]) was < 98 nM, the IC50 (M. mycetomatis MM55; MM55, replicate 1, read-out: IC50 1 um) was < 98 nM and the IC90 (M. mycetomatis MM55; MM55, replicate 1, read-out: IC90 1 um) was 3100 nM. The IC50 (M. mycetomatis MM55; MM55, replicate 2, read-out: IC50 2 um) was < 98 nM, the IC90 (M. mycetomatis MM55; MM55, replicate 2, read-out: IC90 2 um) was < 98 nM and the IC50 (M. mycetomatis MM55; MM55, replicate 3, read-out: IC50 3 um) was < 98 nM. The IC90 (M. mycetomatis MM55; MM55, replicate 3, read-out: IC90 3 um) was < 98 nM, the “MIC50” value [3] was 0.06 µM (≈ 0.0299 µg/mL) and the “MIC range” value [3] was 0.004 to 0.13 µM. The “Inhibits growth of Madurella pseudomycetomatis at 25 μM” value [4] was “able to inhibit the growth”, the activity at 25 µM ([5]; mean of three, M. mycetomatis MM55, read-out: Percentage survival at 25um, 25 uM mean) was 8.22% and the activity at 25 µM ([5]; replicate A, M. mycetomatis MM55, read-out: Percentage survival at 25um, 25 um A) was 5.03%. For the same compound, the activity at 25 µM ([5]; replicate B, M. mycetomatis MM55, read-out: Percentage survival at 25um, 25 uM B) was 11.4%, the activity at 25 µM ([5]; replicate C, M. mycetomatis MM55, read-out: Percentage survival at 25um, 25 uM C) was 8.27% and the activity at 100 µM ([5]; mean of three, M. mycetomatis MM55, read-out: Percentage survival at 100um, 100 uM mean) was 8.8%. It also gave an activity at 100 µM ([5]; replicate 1, M. mycetomatis MM55, read-out: Percentage survival at 100um, 100 uM A (first replicate column)) of 0.903%, a Percent fungal survival at 100 µM ([5]; replicate 2, M. mycetomatis MM55) of 10.2% and an activity at 100 µM ([5]; replicate 3, M. mycetomatis MM55, read-out: Percentage survival at 100um, 100 uM A (third replicate column)) of 15.3%. For the same compound, the “Larvae survival rate on day ten” value ([6]; listed as Olorofim) was 33%, the “Larvae survival rate on day ten” value ([6]; listed as olorofim) was 33.3% and the “In vivo efficacy, Enhanced survival compared to control?” value [6, 12] was “yes **”. For the same compound, the “In vivo efficacy, Larvae survival %” value [6, 12] was 0.0443%, the “Inhibits growth of Madurella tropicana at 25 μM” value [7] was “able to inhibit the growth” and the “Inhibits growth of Falciformispora senegalensis at 25 μM” value [8] was “no activity”.

`Oc1c(C(Nc2nc3ccccc3s2)c2ccc(OC(F)F)cc2)ccc2cccnc12` (centres unmarked) [MMV019724] gave an IC50 (M. mycetomatis MM55; [10]) of 4870 nM, an IC50 (M. mycetomatis MM55; [11]) of 4870 nM and an IC90 (M. mycetomatis MM55; MM55, mean of replicates, read-out: IC90 mean) of 18200 nM. The IC50 (M. mycetomatis MM55; [13]) was 2680 nM, the IC90 (M. mycetomatis MM55; [14]) was 14000 nM and the IC50 (M. mycetomatis MM55; [15]) was 2920 nM. The IC90 (M. mycetomatis MM55; [16]) was 19200 nM, the IC50 (M. mycetomatis MM55; [17]) was 9000 nM and the IC90 (M. mycetomatis MM55; [18]) was 21400 nM. For the same compound, the “Drug static or cidal” value (M. mycetomatis) was “Static”, the activity at 25 µM ([5]; mean of replicates, read-out: Percentage survival at 25um, 25 uM mean) was 9.22% and the activity at 25 µM [5, 19] was 14.5%. The activity at 25 µM [5, 20] was 1.51%, the activity at 25 µM [5, 21] was 11.7% and the activity at 100 µM ([5]; mean of replicates, read-out: Percentage survival at 100um, 100 uM mean) was 16.7%. The activity at 100 µM ([5]; replicate 1, read-out: Percentage survival at 100um, 100 uM A (first replicate column)) was 15.6%, the Percent fungal survival at 100 µM ([5]; replicate 2) was 13.5% and the activity at 100 µM ([5]; replicate 3, read-out: Percentage survival at 100um, 100 uM A (third replicate column)) was 20.9%. For the same compound, the “In vivo efficacy, Larvae survival %” value [6, 12] was 13.3%, the “In vivo efficacy, Enhanced survival compared to control?” value ([6]; in vivo) was “no” and the MIC50 ([9]; median MIC over ten M. mycetomatis isolates, no asterisk, read-out: MIC50) was 4 µM (≈ 1.8 µg/mL). The MIC ([9]; isolate CBS247.48, read-out: MIC CBS247.48) was 8 µM (≈ 3.6 µg/mL), the MIC ([9]; isolate MM14, read-out: MIC MM14) was > 16 µM and the MIC ([9]; isolate MM45, read-out: MIC MM45) was > 16 µM. It also gave an MIC ([9]; isolate MM55, read-out: MIC MM55) of 8 µM (≈ 3.6 µg/mL), an MIC ([9]; isolate P1, read-out: MIC P1) of 4 µM (≈ 1.8 µg/mL) and an MIC ([9]; isolate ParijsAl1, read-out: MIC ParijsAl1) of 2 µM (≈ 0.899 µg/mL). It also gave an MIC ([9]; isolate Peru72012, read-out: MIC Peru72012) of 2 µM (≈ 0.899 µg/mL), an MIC ([9]; isolate So1, read-out: MIC So1) of 4 µM (≈ 1.8 µg/mL) and an MIC ([9]; isolate i1, read-out: MIC i1) of 2 µM (≈ 0.899 µg/mL). For the same compound, the MIC ([9]; isolate i11, read-out: MIC i11) was 16 µM (≈ 7.19 µg/mL) and the MIC50 ([9]; over ten M. mycetomatis isolates, read-out: MIC50 mean) was 4 µM (≈ 1.8 µg/mL).

In the case of `Cc1ccc(NC(=O)c2cc(S(=O)(=O)NC(C)(C)C)ccc2C)nc1` [MMV020289], the “In vitro activity against M. mycetomatis” value [1] is given as “no activity”.

In the case of `Cc1cc(Nc2ccc(C(F)(F)F)cc2)n2ccnc2n1` [MMV011229], the “In vitro activity against M. mycetomatis” value [1] is listed as “no activity”.

In the case of `O=C(NC1CC1)c1ccc(N2CCOc3ccc(Cl)cc32)s1` [MMV020537], the “In vitro activity against M. mycetomatis” value [1] is listed as “no activity”.

For `CN(C/C=C/C#CC(C)(C)C)Cc1cccc2ccccc12` [Terbinafine], the “Inhibits growth of Medicopsis romeroi at 25 μM” value [2] is listed as “inhibit the growth”, the “Inhibits growth of Madurella pseudomycetomatis at 25 μM” value [4] is listed as “not the Madurella species” and the “Cure rate of patients” value (eumycetoma; Senegal, 500 mg twice daily for 24-48 weeks combined with surgery) is listed as 30%. The “Inhibits growth of Falciformispora senegalensis at 25 μM” value [8] was “inhibit the growth”.

With `CCC(C)n1ncn(-c2ccc(N3CCN(c4ccc(OCC5COC(Cn6cncn6)(c6ccc(Cl)cc6Cl)O5)cc4)CC3)cc2)c1=O` (centres unmarked) [MMV637528, Itraconazole, reference compound] the “Inhibits growth of Medicopsis romeroi at 25 μM” value [2] was “did not inhibit the growth”, the IC50 (M. mycetomatis MM55; [10]) was 1130 nM and the IC50 (M. mycetomatis MM55; MM55, mean, read-out: IC50 mean) was 1130 nM. The IC90 (M. mycetomatis MM55; MM55, read-out: IC90 mean) was 2210 nM, the IC50 (M. mycetomatis MM55; [13]) was 1700 nM and the IC90 (M. mycetomatis MM55; [14]) was 3800 nM. For the same compound, the IC50 (M. mycetomatis MM55; [15]) was 740 nM, the IC90 (M. mycetomatis MM55; [16]) was 1320 nM and the IC50 (M. mycetomatis MM55; [17]) was 940 nM. The IC90 (M. mycetomatis MM55; [18]) was 1500 nM, the “MIC50” value [3] was 0.05 µM (≈ 0.0353 µg/mL) and the “MIC range” value [3] was <0.02 to 0.25 µM. The “Cure rate of patients” value (eumycetoma; eumycetoma patients, itraconazole with surgery) was 8% - 26%, the activity at 25 µM ([5]; mean, read-out: Percentage survival at 25um, 25 uM mean) was -1.04% and the activity at 25 µM [5, 19] was -2.88%. For the same compound, the activity at 25 µM [5, 20] was -2.55%, the activity at 25 µM [5, 21] was 2.31% and the activity at 100 µM ([5]; mean, read-out: Percentage survival at 100um, 100 uM mean) was 2.34%. For the same compound, the activity at 100 µM ([5]; replicate (first column), read-out: Percentage survival at 100um, 100 uM A) was -3.71%, the activity at 100 µM ([5]; replicate (second column), read-out: Percentage survival at 100um, 100 uM A) was 3.66% and the activity at 100 µM ([5]; replicate (third column), read-out: Percentage survival at 100um, 100 uM A) was 7.05%. For the same compound, the “Inhibits growth of Falciformispora senegalensis at 25 μM” value [8] was “did not inhibit the growth”.
